Data reported in patent US20240400531A1, “HERBICIDAL MALONAMIDES CONTAINING A CONDENSED RING SYSTEM” (BASF SE, priority 2021, published 2024).

How the values were obtained:
AMARE = test: greenhouse post-emergence herbicidal test; type: in vivo, Amaranthus retroflexus; details: post-emergence method, application rate 0.250 kg/ha, scale from 0 to 100
Text: (§1) The culture containers used were plastic flowerpots containing loamy sand with approximately 3.0% of humus as the substrate. The seeds of the test plants were sown separately for each species.
(§2) For the post-emergence treatment, the test plants were first grown to a height of 3 to 15 cm, depending on the plant habit, and only then treated with the active ingredients which had been suspended or emulsified in water. For this purpose, the test plants were either sown directly and grown in the same containers, or they were first grown separately as seedlings and transplanted into the test containers a few days prior to treatment.
(§3) Depending on the species, the test plants were kept at 10-25° C. or 20-35° C., respectively.
(§4) The test period extended over 2 to 4 weeks. During this time, the test plants were tended, and their response to the individual treatments was evaluated.
(§5) Evaluation was carried out using a scale from 0 to 100. 100 means no emergence of the test plants, or complete destruction of at least the aerial moieties, and 0 means no damage, or normal course of growth. A good herbicidal activity is given at values of 65 to <90 and a very good herbicidal activity is given at values of 90 to 100.

APESV = test: greenhouse pre-emergence herbicidal test; type: in vivo, Apera spica-venti; details: pre-emergence method, application rate 0.250 kg/ha, scale from 0 to 100
Text: as §1
For the pre-emergence treatment, the active ingredients, which had been suspended or emulsified in water, were applied directly after sowing by means of finely distributing nozzles. The containers were irrigated gently to promote germination and growth and subsequently covered with transparent plastic hoods until the test plants had rooted. This cover caused uniform germination of the test plants, unless this had been impaired by the active ingredients.
as §3, §4, §5

ECHCG = test: greenhouse post-emergence herbicidal test; type: in vivo, Echinocloa crus-galli; details: post-emergence method, application rate 0.250 kg/ha, scale from 0 to 100
Text: as §1, §2, §3, §4, §5

Row | Structure (SMILES) | herbicidal activity against AMARE (AMARE) | herbicidal activity against APESV (APESV) | herbicidal activity against ECHCG (ECHCG)
1 | COC(C(=O)Nc1cccc2ocnc12)C(=O)N[C@H]1C=C[C@@H](C(=O)OC(C)C)C1 (stereo partly drawn) [I.11, isopropyl (1S,4R)-4-[[3-(1,3-benzoxazol-4-ylamino)-2-methoxy-3-oxo-propanoyl]amino]cyclopent-2-ene-1-carboxylate] | very good (a very good herbicidal activity is given at values of 90 to 100) | – | –
2 | COC(C(=O)Nc1cccc2occc12)C(=O)N[C@H]1C=C[C@@H](C(=O)OC(C)C)C1 (stereo partly drawn) [I.6, isopropyl (1S,4R)-4-[[3-(benzofuran-4-ylamino)-2-methoxy-3-oxo-propanoyl]amino]cyclopent-2-ene-1-carboxylate] | – | very good (a very good herbicidal activity is given at values of 90 to 100) | very good (a very good herbicidal activity is given at values of 90 to 100)
